Data on 18 molecules can be found in patent US10420737B2, “Hepatotoxicity-free pharmaceutical composition containing acetaminophen drugs” (NATIONAL DEFENSE EDUCATION AND RESEARCH FOUNDATION, priority 2013, dated 2019).

Several values for one entry are separate records, joined by “and”; a condition that tells them apart may be missing. Equal entries are not always repeated. Entries after “also recorded” stand apart in the source; their conditions may differ.

The target of series [1] is Cytochrome P450 2E1 (CYP2E1) (Rattus norvegicus, UniProt P05182). Description: In-vitro screening of CYP2E1 inhibitors in rat liver microsomes (chlorzoxazone 6-hydroxylation). An excerpt:
(§1) This example is preparation of microsomes from rat and human liver for in vitro screening of CYP2E1 inhibitors. A total of 55 safe and edible excipients are included in the screening for cytochrome P450 2E1 (CYP2E1) inhibitors. […] After addition of the test sample, the amount of CYP2E1 metabolite standard 6-OH—CZX (6-Hydroxy-Chlorzoxazone) is used for calculation of the CYP 2E1 inhibition ratio of the test sample by using the amount of 6-OH—CZX of the control group as the baseline.
(§2) Transfer to and pre-incubate the reaction mixture in a water bath at 37° C. for 1 minute. […] Incubate the sample for 1 minute and add internal standard (5 ug/mL 4-hydroxy-tobutamide).
Background: Liver microsomes are vesicles of endoplasmic reticulum, rich in cytochrome P450 enzymes.

The target in series [2] is Cytochrome P450 2E1 (CYP2E1) (Homo sapiens, UniProt P05181). In words: In-vitro screening of CYP2E1 inhibitors in human liver microsomes (chlorzoxazone 6-hydroxylation).
Text: as §1, §2

Series [3] has as its system Male SD (Sprague-Dawley) rats. In words: APAP-induced hepatotoxicity in rats: plasma AST and ALT activity. Format: in vivo, rat. The following applies: for improvement of APAP liver damage (AST, ALT, GSP and Total HAI-score, in words): combined with APAP 1000 mg/kg, versus APAP hepatotoxicity group. As to the method: After completion of the treatments, rats were sacrificed under ether anesthesia, and blood was collected from the tail artery of the rats and placed in a test tube containing EDTA. The plasma was centrifuged at 13,000 at 4° C. for 15 minutes and the isolated plasma was transferred to Eppendorf tubes in aliquots and stored at −80° C.
Liver damage is quantified by measuring plasma AST and ALT activity. AST and ALT are common indicators of hepatotoxicity and are measured by using the Synchron LXi 725 system (Beckman Instruments, U.S.).

Series [4] concerns Male SD (Sprague-Dawley) rats. In words: APAP-induced hepatotoxicity in rats: histological liver tissue sections (Total HAI-score). To be noted: for liver tissue sections, hepatocyte morphology (in words): liver protection groups + APAP 1000 mg/kg, H&E stain 200×, FIG. 2.
In series [5] the test system is Male SD (Sprague-Dawley) rats. Description: APAP-induced hepatotoxicity in rats: galactose single point (GSP) residual liver function test. Format: in vivo, rat. To be noted: excipient 1.67 mg/kg + APAP 1000 mg/kg, single oral dose. The method, then:
After the study was completed, all rats were subjected to GSP test. Rats were i.v. injected with 0.4 g/ml BW galactose solution 0.5 g/kg within 30 seconds and one blood sample was collected at 5, 10, 15, 30, 45 and 60 minutes post injection from the tail vein. Colorimetric galactose dehydrogenase is used to quantify the concentration of galactose and the test concentration ranges from 50 to 1,000 μg/ml. The within-day variation of each concentration is calculated using standard deviation and coefficient of variation (CV) and the maximum allowable coefficient of variation is 10% CV, whereas day-to-day variation is examined by comparing the slope and intercept of calibration curves. The GSP is the blood galactose concentration obtained 60 seconds after stopping the 30-second injection.

Setting [6] is: rat liver microsomes, test concentration 16.5 μM.
The mark [7] stands for this setting: rat liver microsomes, test concentration 33 μM.
Where [8] appears, read: rat liver microsomes, test concentration 66 μM.
The mark [9] stands for this setting: human liver microsomes, test concentration 16.5 μM.
Where [10] appears, read: human liver microsomes, test concentration 33 μM.
Where [11] appears, read: human liver microsomes, test concentration 66 μM.
The mark [12] stands for this setting: APAP alone, single oral dose 1000 mg/kg, plasma, mean ± SD, 1000 mg/kg.
Where [13] appears, read: excipient 1.67 mg/kg + APAP 1000 mg/kg, single oral dose.
Where [14] appears, read: rat, microsomes, 30 min, 16.5 μM, pH 7.4.
[15] abbreviates: rat, microsomes, 30 min, 33 μM, pH 7.4.
[16] abbreviates: rat, microsomes, 30 min, 66 μM, pH 7.4.
[17] abbreviates: human, microsomes, 30 min, 16.5 μM, pH 7.4.
Setting [18] is: human, microsomes, 30 min, 33 μM, pH 7.4.
Where [19] appears, read: human, microsomes, 30 min, 66 μM, pH 7.4.
Where [20] appears, read: rat, microsomes, 30 min, 0.024 %, pH 7.4.
Setting [21] is: rat, microsomes, 30 min, 0.084 % (w/v), pH 7.4.
[22] abbreviates: rat, microsomes, 30 min, 0.167 % (w/v), pH 7.4.

Cytochrome P450 2E1 (CYP2E1) (Rattus norvegicus, UniProt P05182), sequence (P05182 whole entry): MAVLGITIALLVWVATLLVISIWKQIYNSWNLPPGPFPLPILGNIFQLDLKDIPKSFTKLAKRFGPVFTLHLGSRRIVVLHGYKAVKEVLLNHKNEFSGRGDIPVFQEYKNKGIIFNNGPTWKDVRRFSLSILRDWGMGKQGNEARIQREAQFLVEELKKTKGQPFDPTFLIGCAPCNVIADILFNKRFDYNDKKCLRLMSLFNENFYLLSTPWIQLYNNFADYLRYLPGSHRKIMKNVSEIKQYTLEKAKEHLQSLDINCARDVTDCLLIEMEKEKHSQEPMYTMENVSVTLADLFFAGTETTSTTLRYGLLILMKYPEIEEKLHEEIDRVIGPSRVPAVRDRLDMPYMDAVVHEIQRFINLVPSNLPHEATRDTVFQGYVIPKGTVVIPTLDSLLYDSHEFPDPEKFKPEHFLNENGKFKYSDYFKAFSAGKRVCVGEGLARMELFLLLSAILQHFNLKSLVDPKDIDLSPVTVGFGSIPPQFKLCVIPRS
Cytochrome P450 2E1 (CYP2E1) (Homo sapiens, UniProt P05181), sequence (P05181 whole entry): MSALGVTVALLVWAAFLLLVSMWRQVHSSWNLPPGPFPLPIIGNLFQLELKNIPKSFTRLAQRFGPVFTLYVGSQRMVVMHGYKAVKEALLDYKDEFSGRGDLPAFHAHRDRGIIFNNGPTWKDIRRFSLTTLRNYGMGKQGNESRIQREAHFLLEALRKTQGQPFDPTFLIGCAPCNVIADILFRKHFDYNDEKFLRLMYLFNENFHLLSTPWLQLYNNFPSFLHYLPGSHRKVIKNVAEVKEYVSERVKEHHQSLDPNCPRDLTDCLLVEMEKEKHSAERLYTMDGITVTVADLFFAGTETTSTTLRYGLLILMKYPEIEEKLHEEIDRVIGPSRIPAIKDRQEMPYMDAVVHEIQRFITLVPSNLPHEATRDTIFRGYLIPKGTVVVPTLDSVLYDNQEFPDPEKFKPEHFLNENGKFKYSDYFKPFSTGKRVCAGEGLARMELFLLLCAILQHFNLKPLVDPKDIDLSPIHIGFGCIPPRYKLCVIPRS

Consider `O=C(O)CC(O)(CC(=O)O)C(=O)O` [Citric acid], for which the “CYP 2E1 inhibition ratio” value in series [1] (setting [6]) is reported as 7.5 ± 2.3%; in series [1] (setting [7]) it was 12.4 ± 2.2%; in series [1] (setting [8]), 27.6 ± 3.6%; in series [2] (setting [9]), 9.9 ± 3.1%; in series [2] (setting [10]) it was 15.5 ± 1.5%; in series [2] (setting [11]), 20.5 ± 1.8%.
As to `CCN(CC)C(=S)S` [DDTC, Diethyldithiocarbamic acid, reference compound], the “CYP 2E1 inhibition ratio” value in series [1] (rat liver microsomes, test concentration 10 μM) is 8.6 ± 1.1%; in series [1] (rat liver microsomes, test concentration 50 μM), 50.4 ± 1.1%; in series [1] (rat liver microsomes, test concentration 100 μM) it was 89.2% and 89.2 ± 2.2%; in series [2] (human, microsomes, 30 min, 10 μM, pH 7.4), 7.3 ± 1.0%; in series [2] (human, microsomes, 30 min, 50 μM, pH 7.4), 49.8 ± 2.9%; in series [2] (human, microsomes, 30 min, 100 μM, pH 7.4), 89.6 ± 0.9%.
On to Magnesium stearate, for which the “CYP 2E1 inhibition ratio” value in series [1] (setting [6]) amounted to 2.0 ± 1.0%; in series [1] (setting [7]), 3.0 ± 0.7%; in series [1] (setting [8]) it was 5.0 ± 1.6%.
In the case of `O=C([O-])c1ccccc1.[Na+]` [Sodium benzoate], the entries for the “CYP 2E1 inhibition ratio” value in series [1] (setting [6]), in series [1] (setting [7]) and in series [1] (setting [8]) were 7.1 ± 2.0%, 7.8 ± 4.1% and 15.8 ± 0.9%, respectively.
In series [3] (setting [12]), `CC(=O)Nc1ccc(O)cc1` [APAP, N-acetyl-para-aminophenol, reference compound] came in with an ALT of 368±71 IU/L and an AST of 499±112 IU/L. For the same molecule, the “Total HAI-score” value in series [4] (APAP alone, single oral dose 1000 mg/kg, mean ± SD) is 4.9 ± 1.8.
For the molecule `CCCCCCCCCCCCOS(=O)(=O)[O-].[Na+]` [Sodium lauryl sulfate], the entries for the “CYP 2E1 inhibition ratio” value in series [1] (setting [6]), in series [1] (setting [7]) and in series [1] (setting [8]) were 4.6 ± 1.1%, 6.4 ± 0.9% and 4.8 ± 1.2%, respectively.
With `C/C=C/C=C/C(=O)O` [Sorbic acid], the “CYP 2E1 inhibition ratio” value in series [1] (setting [6]) was 12.1 ± 5.7%; in series [1] (setting [7]) it was 13.2 ± 4.4%; in series [1] (setting [8]), 19.0 ± 5.6%; in series [2] (setting [9]) it was 8.4 ± 1.6%; in series [2] (setting [10]), 10.9 ± 2.7%; in series [2] (setting [11]), 14.8 ± 0.1%.
Consider `OC[C@@H](O)[C@@H](O)[C@H](O)[C@H](O)CO` [Mannitol], for which the “improvement of APAP liver damage (AST, ALT, GSP and Total HAI-score, in words)” value (“improvement of APAP liver damage” for short) in series [3] is “significant decrease”. Moreover, the ALT in series [3] (setting [13]) is 79 ± 34 IU/L. In addition, the AST in series [3] (setting [13]) came to 201 ± 30 IU/L. Also, in series [5], the GSP is 253 ± 29 mg/L. Further, the “CYP 2E1 inhibition ratio” value in series [1] (setting [14]) stood at 40.9 ± 2.8%; in series [1] (setting [15]), 51.0 ± 2.7%; in series [1] (setting [16]) it was 60.6 ± 3.3%; in series [2] (setting [17]) it was 44.8 ± 1.8%; in series [2] (setting [18]), 51.2 ± 2.1%; in series [2] (setting [19]) it was 54.5 ± 4.2%. In addition, the “Total HAI-score” value in series [4] (setting [13]) came out at 0.8 ± 0.3. Besides, in series [4] (single oral dose), the “liver tissue sections, hepatocyte morphology (in words)” value is “more intact around the central vein and have a apparent nucleus with less vacuolization; also recorded: hepatocytes are relatively intact with visible nucleus and less vacuolization”.
Regarding `CCCCCCCCCCCCCCCCCCCCCC(=O)OCC(O)CO` (stereo not drawn) [Glyceryl behenate], the “CYP 2E1 inhibition ratio” value in series [1] (setting [14]) is reported as 3.1 ± 0.2%; in series [1] (setting [15]) it was 3.1 ± 2.5%; in series [1] (setting [16]), 8.2 ± 2.0%.
Turning to `O.OC[C@H]1O[C@@H](O[C@H]2[C@H](O)[C@@H](O)C(O)O[C@@H]2CO)[C@H](O)[C@@H](O)[C@H]1O` (stereo partly drawn) [Lactose monohydrate], the “CYP 2E1 inhibition ratio” value in series [1] (setting [14]) worked out at 3.9 ± 2.3%; in series [1] (setting [15]), 7.8 ± 2.2%; in series [1] (setting [16]) it was 8.7 ± 3.8%.
Turning to `COC(=O)c1ccc(O)cc1` [Methylparaben], the “CYP 2E1 inhibition ratio” value is given as 4.6 ± 3.2% in series [1] (setting [14]), −14.6 ± 4.1% in series [1] (setting [15]) and −21.5 ± 2.0% in series [1] (setting [16]).
For the molecule `O.O.O=P([O-])([O-])O.[Ca+2]` [Dicalcium phosphate dihydrate], in series [3], the “improvement of APAP liver damage” value is “not as expected”. Moreover, in series [3] (setting [13]), the ALT came out at 196 ± 65 IU/L. Also, the AST in series [3] (setting [13]) is 315 ± 42 IU/L. The GSP in series [5] (phosphate dihydrate) was 444 ± 60 mg/L. Also, the “CYP 2E1 inhibition ratio” value is reported as 55.0 ± 4.6% in series [1] (setting [6]); 62.0 ± 2.6% in series [1] (setting [7]); 76.7 ± 0.8% in series [1] (setting [8]); 31.2 ± 2.9% in series [2] (setting [9]); 56.8 ± 2.2% in series [2] (setting [10]); 60.1 ± 0.3% in series [2] (setting [11]). Also, in series [4] (setting [13]), the “Total HAI-score” value was determined as 3.1 ± 1.1. For the same molecule, the “liver tissue sections, hepatocyte morphology (in words)” value in series [4] (single oral dose) is given as “except for the dicalcium phosphate group”.
`OC[C@H]1O[C@H](O[C@]2(CCl)O[C@H](CCl)[C@@H](O)[C@@H]2O)[C@H](O)[C@@H](O)[C@H]1Cl` [Sucralose]: in series [3], the “improvement of APAP liver damage” value was “significant decrease”. Besides, the ALT in series [3] (setting [13]) amounted to 83 ± 23 IU/L. Besides, the AST in series [3] (setting [13]) was 199 ± 24 IU/L. Besides, the GSP in series [5] worked out at 218 ± 31 mg/L. Also, the “CYP 2E1 inhibition ratio” value in series [1] (setting [14]) was determined as 41.1 ± 2.7%; in series [1] (setting [15]) it was 46.8 ± 0.8%; in series [1] (setting [16]), 54.0 ± 4.2%; in series [2] (setting [17]), 37.1 ± 2.8%; in series [2] (setting [18]) it was 45.8 ± 4.0%; in series [2] (setting [19]) it was 55.8 ± 2.0%. Further, in series [4] (setting [13]), the “Total HAI-score” value is given as 0.6 ± 0.4. For the same molecule, in series [4] (single oral dose), the “liver tissue sections, hepatocyte morphology (in words)” value is “most similar to the liver tissue sections of normal rats; also recorded: hepatocytes are relatively intact with visible nucleus and less vacuolization”.
For `OCc1ccccc1` [Benzyl alcohol], the “CYP 2E1 inhibition ratio” value is recorded as 8.2 ± 2.0% in series [1] (setting [20]), 6.7 ± 1.0% in series [1] (setting [21]) and −10.3 ± 6.3% in series [1] (setting [22]).
`OC[C@@H](O)[C@@H](O)[C@H](O)[C@@H](O)CO` [Sorbitol]: the “CYP 2E1 inhibition ratio” value in series [1] (setting [20]) is recorded as 6.4 ± 0.5%; in series [1] (setting [21]) it was 5.6 ± 0.5%; in series [1] (setting [22]) it was 16.1 ± 0.7%.
For `CCCOC(=O)c1ccc(O)cc1` [Propylparaben], the figures for the “CYP 2E1 inhibition ratio” value in series [1] (setting [14]), in series [1] (setting [15]) and in series [1] (setting [16]) were −4.1 ± 1.2%, −17.2 ± 2.4% and −27.3 ± 3.7%, respectively.
In the case of `CC1=CC(=O)NS(=O)(=O)O1` [Acesulfame potassium], the “CYP 2E1 inhibition ratio” value in series [1] (setting [6]) was found to be 3.9 ± 2.7%; in series [1] (setting [7]), 7.1 ± 2.3%; in series [1] (setting [8]), 14.5 ± 1.9%.
For the molecule `O=C1NS(=O)(=O)c2ccccc21` [Saccharin], the “CYP 2E1 inhibition ratio” value in series [1] (setting [6]) worked out at 35.3 ± 2.0%; in series [1] (setting [7]), 59.6 ± 3.3%; in series [1] (setting [8]), 67.4 ± 3.9%; in series [2] (setting [9]), 29.4 ± 2.7%; in series [2] (setting [10]), 51.2 ± 0.9%; in series [2] (setting [11]), 78.5 ± 2.1%.
